{"source": "patent EP2050455B1", "about": "“Compounds leading to an increase of the IL-12/IL-10 ratio and their use for therapy of infectious and proliferative diseases” (priority 2007, dated 2009)", "key": {"MoDC [1]": {"system": "MoDC", "settings": "Nishiguchi et al. (2001); cited from earlier work"}, "IL-10 production of MoDC": {"system": "IL-10 production of MoDC", "test": "IL-10 production by ELISPOT assay (indicator culture)", "assay_type": "cell-based, Human", "procedure": "(§1) The number of living cells was measured by Casy-technology. […] They were analysed for expression of CD14 versus HLA-DR. Morphology was assessed by phase contrast microscopy. […] MoDC were cultured in serum containing media (A) or serum free (B). They were left untreated (black), treated with maturation cocktail as positive control (green), or with 10 nM OspA-LP (red) for 48 hours and analysed by flow cytometry for viability or the expression of CD14, CD1a, CD86/CD80 double positive cells, CD83 and CD197 (CCR7). Data were collected from 4 independent experiments. The results are means ±SD. […] After another 24 hours the cells were analysed for IL-10 production by ELISPOT assay. […] The resulting values are given numbers of spots. […] All LP treated MoDC (red) were compared with untreated MoDC (black). The blue line represents 100 spots per 5x10^4 MoDC. […] They were analysed for IL-10 (left) and IL-12p70 production (right). Shown are 3 independent experiments using cells from different healthy donors. Compared to the untreated controls (black), IL-10 production is not depressed by LPS R60/IFN-γ (red). […] (A) number of cytokine producing cells: IL-10 (black); IL-12p70 (red). (B) ratio of IL-12p70/IL-10 producing cells. […] The resulting cells were analysed for the surface expression of both CD80 and CD86 in dot plot analyses (A), and CD83 histogram overlay (B).\n(§2) This culture imitates the fate of DC after injecting them into an organism and is designed to test the actual production and release of IL-12 and IL-10 during this phase. This is tested by the well-known ELISPOT-assay. For this phase the previous inducers were either sustained or washed out. Also, further inducers were added. Number of spots as well as the intensity of spots could be read out. Therefore, this setup does more realistically reflect the actual functional state of DC at the time of injection and thereafter."}, "[2]": {"system": "IL-12p70 production of MoDC", "test": "IL-12p70 production by ELISPOT assay (indicator culture)", "assay_type": "cell-based, Human", "procedure": "as §1, §2"}, "MoDC [3]": {"system": "MoDC", "test": "Surface marker expression / maturation of MoDC by flow cytometry", "assay_type": "cell-based, Human", "procedure": "as §1\nCytokines GM-CSF (800 IU/ml; Bayer Healthcare Pharmaceutical) plus GMP-certified IL-4 (500 IU/ml; CellGenix, Freiburg, Germany) were added to induce transdifferentiation from monocytes to immature monocyte-derived dendritic cells (iMoDC). After 5-7 days of culture iMoDC were analysed for the surface markers CD1a, CD209 und CD14 using the antibodies listed in the following table. Table\nMaturation signals were added, including signals to trigger polarisation. The cells were further cultured for another 2 days.\nAlternatively, the maturation phase was split into individual steps: • Step 1: TLR agonists lipopeptides • Step 2: presence of the previous inducers, TLR agonists lipopolysaccharide added in the presence of IFN-γ."}, "iMoDC": {"system": "iMoDC", "test": "Phenotype modification: CD14 versus HLA-DR expression and phase contrast morphology", "assay_type": "cell-based, Human", "settings": "non-toxic concentrations, 20-48 hours (Example 3)", "description": "Human peripheral blood monocytes were prepared by various well-established techniques. • (1) Blood drawing was carried out in the presence of the anticoagulant EDTA, separation of the nucleated cells by combined density/velocity gradient centrifugation, followed by selective adherence in the culture for one hour. The non-attached cells were washed off and the remaining population of highly enriched monocytes was further cultured. • (2) Alternatively, blood cells were recovered by leukapheresis, followed by counterflow elutriation. The highly enriched monocyte fraction was either freeze protected or taken into culture. Cells were cultured in a humidified incubator (37°C, 5% CO2)."}, "[4]": {"settings": "non-toxic concentrations, 20-48 hours (Example 3)"}}, "data": [{"substance": "FSL-1", "values": [{"measurement": "Maturation of DC", "setting": "MoDC [1]", "value": "incompletely"}, {"measurement": "IL-10-secretion of immature DC", "setting": "IL-10 production of MoDC; ELISPOT", "value": "down-regulation"}, {"measurement": "IL-10 production", "setting": "IL-10 production of MoDC; OspA-LP 10 nM, FSL-1 1 nM, FSL-2 1 nM, alone or combined with IFN-γ (500 IU/ml), 24 hours, vs untreated (Figure 6)", "value": "downregulated"}, {"measurement": "IL-10 secreting cells", "setting": "IL-10 production of MoDC; non-toxic concentrations, 20-48 hours, dose-dependent, donor-independent (Example 3)", "value": "decrease"}, {"measurement": "IL-12p70 production", "setting": "[2]; OspA-LP 10 nM, FSL-1 1 nM, FSL-2 1 nM, alone or combined with IFN-γ (500 IU/ml), 24 hours (Figure 6)", "value": "remains extremely low"}, {"measurement": "production of IL-12", "setting": "[2]; immature DC", "value": "No effect"}, {"measurement": "IL-12p70 production", "setting": "[2]; [4]", "value": "only poorly stimulated"}, {"measurement": "Maturation of MoDC (surface expression of CD80, CD86, CD83)", "setting": "MoDC [3]; FSL-1 LP 1 nM, LPS R60 1 µg/ml / IFN-γ 500 IU/ml, single or sequential (Figure 10)", "value": "only incomplete maturation"}, {"measurement": "Costimulatory signals (CD80, CD86)", "setting": "MoDC [3]; [4]", "value": "upregulated"}, {"measurement": "maturation as measured by expression of CD83", "setting": "MoDC [3]; [4]", "value": "No complete maturation"}, {"measurement": "cell phenotype", "setting": "iMoDC", "value": "modification"}]}]}
